Reference: patent US20100204246A1, “5-AMINOPYRAZOL-3-YL-3H-IMIDAZO (4,5-B) PYRIDINE DERIVATIVES AND THEIR USE FOR THE TREATMENT OF CANCER” (AstraZeneca AB, priority 2007, published 2010)
pIC50: −log10 of the molar value.

How the values were obtained:
human Trk A kinase = molecular target: T1, human Trk A kinase (Homo sapiens, UniProt P04629); test: Trk A kinase assay (Alphascreen, phosphorylation of PolyEY-biotin substrate); type: biochemical; conditions: 0.838 ng/ml Trk A, 70 μM ATP, 20 minutes, room temperature; read-out: IC50 (Trk inhibitory activity)
T1 construct: HIS; made in house; host or cells: SF9 cells
Experimental: Trk A kinase activity was determined by measuring the kinase's ability to phosphorylate synthetic tyrosine residues within a generic polypeptide substrate using an Amplified Luminescent Proximity Assay (Alphascreen) technology (PerkinElmer, 549 Albany Street, Boston, Mass.).
To measure Trk A kinase activity, the intracellular domain of a HIS-tagged human Trk A kinase (amino acids 442-796 of Trk A, Swiss-Prot Primary Accession Number P04629) may be expressed in SF9 cells and purified using standard nickel column chromatography. After incubation of the kinase with a biotinylated substrate and adenosine triphosphate (ATP) for 20 minutes at room temperature, the kinase reaction may be stopped by the addition of 30 mM ethylenediaminetetraacetic acid (EDTA). The reaction may be performed in 384 well microtitre plates and the reaction products may be detected with the addition of strepavidin coated Donor Beads and phosphotyrosine-specific antibodies coated Acceptor Beads using the EnVision Multilabel Plate Reader after an overnight incubation at room temperature.

human JAK2 = molecular target: T2, human JAK2 (Homo sapiens, UniProt O60674); test: JAK2 kinase assay (Alphascreen, phosphorylation of biotinylated peptide substrate); type: biochemical; conditions: 150pM JAK2 enzyme, 30 μM ATP, 60 minutes, room temperature; read-out: IC50 (JAK inhibitory activity)
T2 construct: human JAK2, amino acids 808-end; His6 (C); purchased Upstate Biotechnology; host or cells: baculovirus in Sf21 cells
Experimental: JAK2 kinase activity was determined by measuring the kinase's ability to phosphorylate synthetic tyrosine residues within a generic polypeptide substrate using an Amplified Luminescent Proximity Assay (Alphascreen) technology (PerkinElmer, 549 Albany Street, Boston, Mass.).
To measure JAK2 kinase activity, a commercially available purified enzyme may be used. The enzyme may be a C-terminal His6-tagged, recombinant, human JAK2, amino acids 808-end, (Genbank Accession number NM 004972) expressed by baculovirus in Sf21 cells (Upstate Biotechnology MA). After incubation of the kinase with a biotinylated substrate and adenosine triphosphate (ATP) for 60 minutes at room temperature, the kinase reaction may be stopped by the addition of 30 mM ethylenediaminetetraacetic acid (EDTA). The reaction may be performed in 384 well microtitre plates and the reaction products may be detected with the addition of streptavidin coated Donor Beads and phosphotyrosine-specific antibodies coated Acceptor Beads using the EnVision Multilabel Plate Reader after an overnight incubation at room temperature.

T1 sequence (P04629 442-796): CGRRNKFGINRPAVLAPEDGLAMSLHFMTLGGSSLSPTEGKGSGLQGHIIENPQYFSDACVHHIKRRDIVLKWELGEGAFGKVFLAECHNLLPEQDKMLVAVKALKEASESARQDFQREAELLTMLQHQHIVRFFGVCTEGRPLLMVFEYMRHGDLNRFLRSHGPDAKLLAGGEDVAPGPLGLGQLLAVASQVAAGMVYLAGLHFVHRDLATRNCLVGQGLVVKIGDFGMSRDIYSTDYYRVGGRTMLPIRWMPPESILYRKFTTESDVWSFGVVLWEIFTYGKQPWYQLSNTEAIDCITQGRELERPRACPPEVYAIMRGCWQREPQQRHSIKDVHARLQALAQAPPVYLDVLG
T2 sequence (O60674 808-1132 limits assumed): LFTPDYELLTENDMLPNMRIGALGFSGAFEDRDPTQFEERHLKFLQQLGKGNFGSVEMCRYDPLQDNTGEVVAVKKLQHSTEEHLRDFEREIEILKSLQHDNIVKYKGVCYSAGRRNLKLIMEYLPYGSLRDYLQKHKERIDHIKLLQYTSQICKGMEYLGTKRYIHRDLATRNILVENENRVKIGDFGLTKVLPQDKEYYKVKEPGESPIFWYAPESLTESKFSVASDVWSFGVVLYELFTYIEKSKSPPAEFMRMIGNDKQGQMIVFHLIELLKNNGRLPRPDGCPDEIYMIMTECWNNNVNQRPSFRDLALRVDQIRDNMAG

Row | Structure (SMILES) | pIC50 (human Trk A kinase) | pIC50 (human JAK2)
1 | C[C@@H](c1ccc(F)cn1)n1cnc2cc(F)c(Nc3cc(C4CC4)[nH]n3)nc21 [Example 1, N-(5-Cyclopropyl-1H-pyrazol-3-yl)-6-fluoro-3-[(1S)-1-(5-fluoropyridin-2-yl)-ethyl]-3H-imidazo[4,5-b]-pyridin-5-amine] | 8.52 | 
2 | C[C@@H](c1ccc(F)cn1)n1cnc2ccc(Nc3cc(C4CC4)[nH]n3)nc21 [Example 2, N-(5-Cyclopropyl-1H-pyrazol-3-yl)-3-[(1S)-1-(5-fluoropyridin-2-yl)ethyl]-3H-imidazo[4,5-b]pyridin-5-amine] | 7.64 | 
3 | CCOc1cc(Nc2nc3c(cc2F)ncn3[C@@H](C)c2ccc(F)cn2)n[nH]1 [Example 3, N-(5-Ethoxy-1H-pyrazol-3-yl)-6-fluoro-3-[(1S)-1-(5-fluoropyridin-2-yl)-ethyl]-3H-imidazo[4,5-b]pyridin-5-amine] | 8.52 | 7.96
4 | CC(C)Oc1cc(Nc2nc3c(cc2F)ncn3[C@@H](C)c2ccc(F)cn2)n[nH]1 [Example 4, 6-Fluoro-3-[(1S)-1-(5-fluoropyridin-2-yl)-ethyl]-N-(5-isopropoxy-1H-pyrazol-3-yl)-3H-imidazo[4,5-b]pyridin-5-amine] | 8.52 | 
5 | C[C@@H](c1ncc(F)cn1)n1cnc2cc(F)c(Nc3cc(C4CC4)[nH]n3)nc21 [Example 5, N-(5-Cyclopropyl-1H-pyrazol-3-yl)-6-fluoro-3-[(1S)-1-(5-fluoropyrimidin-2-yl)-ethyl]-3H-imidazo[4,5-b]pyridin-5-amine] | 8.52 | 
6 | CC(C)Oc1cc(Nc2nc3c(cc2F)ncn3[C@@H](C)c2ncc(F)cn2)n[nH]1 [Example 6, 6-Fluoro-3-[(1S)-1-(5-fluoropyrimidin-2-yl)-ethyl]-N-(5-isopropoxy-1H-pyrazol-3-yl)-3H-imidazo[4,5-b]pyridin-5-amine] | 8.52 | 
7 | COc1cc(Nc2nc3c(cc2F)ncn3[C@@H](C)c2ncc(F)cn2)n[nH]1 [Example 7, 6-Fluoro-3-[(1S)-1-(5-fluoropyrimidin-2-yl)-ethyl]-N-(5-methoxy-1H-pyrazol-3-yl)-3H-imidazo[4,5-b]pyridin-5-amine] | 8.52 | 
8 | CC(C)Oc1cc(Nc2nc3c(cc2F)ncn3[C@@H](CO)c2ccc(F)cn2)n[nH]1 [Example 8, (2R)-2-{6-Fluoro-5-[(5-isopropoxy-1H-pyrazol-3-yl)-amino]-3H-imidazo[4,5-b]pyridine-3-yl}-2-(5-fluoropyridin-2-yl)-ethanol] | 8.52 | 
9 | COc1cc(Nc2nc3c(cc2F)ncn3[C@@H](CO)c2ccc(F)cn2)n[nH]1 [Example 9, (2R)-2-{6-Fluoro-5-[(5-methoxy-1H-pyrazol-3-yl)-amino]-3H-imidazo[4,5-b]pyridin-3-yl}-2-(5-fluoropyridin-2-yl)-ethanol] | 8.52 | 
10 | CCOc1cc(Nc2nc3c(cc2F)ncn3[C@@H](CO)c2ccc(F)cn2)n[nH]1 [Example 10, (2R)-2-{5-[(5-Ethoxy-1H-pyrazol-3-yl)-amino]-6-fluoro-3H-imidazo[4,5-b]pyridin-3-yl}-2-(5-fluoropyridin-2-yl)-ethanol] | 8.52 | 
11 | COc1cc(Nc2nc3c(cc2F)ncn3[C@@H](C)c2ccc(F)cn2)n[nH]1 [Example 11, 6-Fluoro-3-[(1S)-1-(5-fluoropyridin-2-yl)-ethyl]-N-(5-methoxy-1H-pyrazol-3-yl)-3H-imidazol-[4,5-b]pyridin-5-amine] | 8.52 | 
12 | Cc1cc(Nc2nc3c(cc2F)ncn3[C@@H](C)c2ncc(F)cn2)n[nH]1 [Example 12, 6-Fluoro-3-[(1S)-1-(5-fluoropyrimidin-2-yl)ethyl]-N-(5-methy 1-1H-pyrazol-3-yl)-3H-imidazo[4,5-b]pyridin-5-amine] | 7.18 | 
13 | Cc1cc(Nc2nc3c(cc2F)ncn3[C@@H](C)c2ccc(F)cn2)n[nH]1 [Example 13, 6-Fluoro-3-[(1S)-1-(5-fluoropyridin-2-yl)ethyl]-N-(5-methyl-1H-pyrazol-3-yl)-3H-imidazo[4,5-b]pyridin-5-amine] | 7.68 | 
14 | Cc1cc(Nc2nc3c(cc2F)[nH]c(=O)n3[C@@H](C)c2ncc(F)cn2)n[nH]1 [Example 14, 6-Fluoro-3-[(1S)-1-(5-fluoropyrimidin-2-yl)ethyl]-5-[(5-methyl-1H-pyrazol-3-yl)amino]-1,3-dihydro-2H-imidazo[4,5-b]pyridin-2-one] | 5.48 | 
15 | Cc1cc(Nc2nc3c(cc2F)nc(C)n3[C@@H](C)c2ncc(F)cn2)n[nH]1 [Example 15, 6-Fluoro-3-[(1S)-1-(5-fluoropyrimidin-2-yl)ethyl]-2-methyl-N-(5-methyl-1H-pyrazol-3-yl)-3H-imidazo[4,5-b]pyridin-5-amine] | 5.03 | 
16 | Cc1cc(Nc2nc3c(cc2F)ncn3[C@@H](CO)c2ccc(F)cn2)n[nH]1 [Example 16, (2R)-2-{6-Fluoro-5-[(5-methyl-1H-pyrazol-3-yl)amino]-3H-imidazo[4,5-b]pyridin-3-yl}-2-(5-fluoropyridin-2-yl)ethanol] | 7.14 | 
17 | Cc1cc(Nc2nc3c(cc2F)ncn3Cc2ncc(F)cc2F)n[nH]1 [Example 17, 3-[(3,5-Difluoropyridin-2-yl)methyl]-6-fluoro-N-(5-methyl-1H-pyrazol-3-yl)-3H-imidazo[4,5-b]pyridin-5-amine] | 6.55 | 
18 | Cc1cc(Nc2nc3c(cc2F)nc(C)n3Cc2ncc(F)cc2F)n[nH]1 [Example 18, 3-[(3,5-Difluoropyridin-2-yl)methyl]-6-fluoro-2-methyl-N-(5-methyl-1H-pyrazol-3-yl)-3H-imidazo[4,5-b]pyridin-5-amine] | 6.41 | 
